Assay results reported in paper PMC6762200, “Discovery of novel West Nile Virus protease inhibitor based on isobenzonafuranone and triazolic derivatives of eugenol and indan-1,3-dione scaffolds” (PLoS ONE, 2019).

Columns and labels:
[1] = molecular target: T1, WNV NS2B-NS3 protease (NS2B-NS3pro) (West Nile virus strain NY-99, UniProt Q9Q6P4); assay: fluorogenic protease assay, pERTKR-AMC, nonlinear fit in competitive mode; assay type: biochemical
T1 construct: gene GP1; cut from WNV genome polyprotein; with Serine protease subunit NS2B (cofactor region)
T1 sequence (Q9Q6P4 1423-1469): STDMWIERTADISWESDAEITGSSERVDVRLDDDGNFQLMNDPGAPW
T1 sequence (Q9Q6P4 1506-1689): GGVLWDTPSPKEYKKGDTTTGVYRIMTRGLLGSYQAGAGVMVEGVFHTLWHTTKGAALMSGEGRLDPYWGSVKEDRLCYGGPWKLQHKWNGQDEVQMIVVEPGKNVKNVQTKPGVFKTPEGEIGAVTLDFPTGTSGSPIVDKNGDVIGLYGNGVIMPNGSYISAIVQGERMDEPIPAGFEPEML

[2] = molecular target: T1, WNV NS2B-NS3 protease (NS2B-NS3pro); assay: fluorogenic protease assay, pERTKR-AMC, four-parameter fit, […] concentrations; assay type: biochemical

`C=CCc1ccc(OCc2cn(Cc3ccccc3Br)nn2)c(OC)c1` [compound 35, 4-((4-allyl-2-methoxyphenoxy)methyl)-1-(2-bromobenzyl)-1H-1,2,3-triazole] showed a Ki [1] of 3.06 µM and an IC50 [2] of 6.86 µM.
